“Also recorded” adds a separate entry of the source. Where a SMILES comes first, the peptide text is derived from it. The star is where a group is joined. Cbz = O=C(OCc1ccccc1)*; CH2F = FC*
Tests used:
T-47D cells [1] = assay: Modulation of NRIF3- or DD1-mediated apoptosis in T-47D cells (TUNEL); assay type: cell-based, human
Experimental: (§1) Cell culture and transfection conditions. All breast cancer cell lines were maintained in DMEM (GIBCO-BRL, Life Technologies) supplemented with 10% fetal bovine serum (FBS). Other cells were cultured in DMEM supplemented with either 10% FBS or 10% Hyclone defined/supplemented bovine calf serum. For most of the transient transfections, T-47D cells were plated at a density of 3×10^4 cells/well on coverslips in 24-well tissue culture plates. About 20 h later, the cells were transfected with indicated plasmid(s) by Genefect transfection reagent (Molecula, USA) according to manufacturer's protocol. Generally, the amount of plasmids used in transfections was the following: GFP or GFP-fusion 300-500 ng, Bcl-2 or Bcl-xL 1-1.5 μg, AIF-GFP 500 ng, Gal4-DD1, GAl4-DD3 or Gal4 control 0.5-1 μg. After transfection, cells were incubated in DMEM/10% FBS medium for 5 h to 24 h before being harvested and processed for appropriate analyses. Transient transfection of other breast cancer cell lines were carried out similarly, except that the transfection reagent used was Lipofectamine 2000 (Life technologies). All other cells were transfected using Geneporter 2 (Gene Therapy Systems). When indicated, the following compounds were included in the medium: all-trans retinoic acid (100 nM), etopside (100 μM), zVAD-fmk (100 μM), zVDVAD-fmk (20 μM), TNFα (10 ng/ml) and cycloheximide (10 μg/ml).
siRNA studies. A small interference RNA (siRNA) duplex that efficiently silences human caspase-2 expression has been previously described (27), and was purchased from Dharmacon. The siRNA was dissolved at 20 pmol/μl in H2O. T-47D cells were plated at the density of 1.5×10^5 cells/well in 6-well plates the day before being transfected with siRNA. Transfection was carried out using Oligofectamine (Invitrogen), with 12 μl of dissolved siRNA and 12 μl of Oligofectamine reagent. Cells were fed with additional DMEM/10% FBS the second day, and harvested about 42 h after siRNA transfection. […] The harvested cells were then re-plated on cover-slips in 24-well plates as described earlier, and incubated for a few hours to let attachment occur. Cells were then transfected with the indicated GFP or GFP-fusion vectors as described earlier or treated with etoposide (100 μM). Cells were harvested about 20-24 h later and processed for appropriate assays. To document caspase-2 knock down, total lysates from siRNA transfected or control cells were quantified for protein concentrations. Equal amount of proteins were then subjected to SDS-PAGE, followed by Western analysis using a monoclonal antibody against caspase-2 (11B4, from Alexis).
Apoptosis assays. Cells plated on cover-slips in 24-well tissue culture plates were transfected and/or treated with appropriate compounds as indicated. Generally, cells were harvested within 20-24 h and processed for TUNEL and/or Annexin V assays. For Annexin V assay, cells were washed 3× with PBS and assayed using ApoAlert Nitric Oxide/Annexin V Dual Sensor Kit (BD Biosciences, USA) according to manufacturer's protocol. […] For quantitative analysis, fields consisting of at least several hundred cells were scanned, and a number of representative fields were photographed using GFP and rhodamine filters. Green and red cells from the same field were then counted. Generally, about one hundred of total green cells were counted for each data point. The percent of green cells counted that are also red were then calculated.

HeLa cells [2] = assay: Apoptosis of HeLa cells treated with TNFα and cycloheximide; assay type: cell-based; settings: same dose (100 uM); data not shown
Experimental: as §1

GH4C1 = assay: TUNEL apoptosis assay of transfected GH4C1 cells; assay type: cell-based
Experimental: as §1, with “Transient transfection of other breast cancer cell lines were carried out similarly, except that the transfection reagent used was Lipofectamine 2000 (Life technologies). All other cells were transfected using Geneporter 2 (Gene Therapy Systems). When indicated, the following compounds were included in the medium: all-trans retinoic acid (100 nM), etopside (100 μM), zVAD-fmk (100 μM), zVDVAD-fmk (20 μM), TNFα (10 ng/ml) and cycloheximide (10 μg/ml).” left out
(§2) Apoptosis assays. […] For quantitative analysis, fields consisting of at least several hundred cells were scanned, and a number of representative fields were photographed using GFP and rhodamine filters. Green and red cells from the same field were then counted. Generally, about one hundred of total green cells were counted for each data point. The percent of green cells counted that are also red were then calculated.

293 = assay: TUNEL apoptosis assay of transfected 293 cells; assay type: cell-based
Experimental: as §1, with “Transient transfection of other breast cancer cell lines were carried out similarly, except that the transfection reagent used was Lipofectamine 2000 (Life technologies). All other cells were transfected using Geneporter 2 (Gene Therapy Systems). When indicated, the following compounds were included in the medium: all-trans retinoic acid (100 nM), etopside (100 μM), zVAD-fmk (100 μM), zVDVAD-fmk (20 μM), TNFα (10 ng/ml) and cycloheximide (10 μg/ml).” left out
as §2

AIF-GFP = AIF-GFP translocation from mitochondria to nucleus in T-47D cells; assay type: cell-based, human; settings: as early as 5 h after transfection
Experimental: as §1, with “Transient transfection of other breast cancer cell lines were carried out similarly, except that the transfection reagent used was Lipofectamine 2000 (Life technologies). All other cells were transfected using Geneporter 2 (Gene Therapy Systems). When indicated, the following compounds were included in the medium: all-trans retinoic acid (100 nM), etopside (100 μM), zVAD-fmk (100 μM), zVDVAD-fmk (20 μM), TNFα (10 ng/ml) and cycloheximide (10 μg/ml).” left out
as §2

MCF-7 cells = assay: TUNEL apoptosis assay of transfected MCF-7 cells; assay type: cell-based, human; settings: MCF-7 (ER+)
Experimental: as §1, with “Transient transfection of other breast cancer cell lines were carried out similarly, except that the transfection reagent used was Lipofectamine 2000 (Life technologies). All other cells were transfected using Geneporter 2 (Gene Therapy Systems). When indicated, the following compounds were included in the medium: all-trans retinoic acid (100 nM), etopside (100 μM), zVAD-fmk (100 μM), zVDVAD-fmk (20 μM), TNFα (10 ng/ml) and cycloheximide (10 μg/ml).” left out
as §2

T-47D cells [3] = assay: TUNEL apoptosis assay of transfected T-47D cells; assay type: cell-based, human; settings: T-47D cells transfected with expression vector
Experimental: as §1, with “Transient transfection of other breast cancer cell lines were carried out similarly, except that the transfection reagent used was Lipofectamine 2000 (Life technologies). All other cells were transfected using Geneporter 2 (Gene Therapy Systems). When indicated, the following compounds were included in the medium: all-trans retinoic acid (100 nM), etopside (100 μM), zVAD-fmk (100 μM), zVDVAD-fmk (20 μM), TNFα (10 ng/ml) and cycloheximide (10 μg/ml).” left out
as §2

MB-MDA-231 cells = assay: TUNEL apoptosis assay of transfected MB-MDA-231 cells; assay type: cell-based, human; settings: MB-MDA-231 (ER−)
Experimental: as §1, with “Transient transfection of other breast cancer cell lines were carried out similarly, except that the transfection reagent used was Lipofectamine 2000 (Life technologies). All other cells were transfected using Geneporter 2 (Gene Therapy Systems). When indicated, the following compounds were included in the medium: all-trans retinoic acid (100 nM), etopside (100 μM), zVAD-fmk (100 μM), zVDVAD-fmk (20 μM), TNFα (10 ng/ml) and cycloheximide (10 μg/ml).” left out
as §2

UOK-145 = assay: TUNEL apoptosis assay of transfected UOK-145 cells; assay type: cell-based
Experimental: as §1, with “Transient transfection of other breast cancer cell lines were carried out similarly, except that the transfection reagent used was Lipofectamine 2000 (Life technologies). All other cells were transfected using Geneporter 2 (Gene Therapy Systems). When indicated, the following compounds were included in the medium: all-trans retinoic acid (100 nM), etopside (100 μM), zVAD-fmk (100 μM), zVDVAD-fmk (20 μM), TNFα (10 ng/ml) and cycloheximide (10 μg/ml).” left out
as §2

MB-MDA-435 cells = assay: TUNEL apoptosis assay of transfected MB-MDA-435 cells; assay type: cell-based, human; settings: MB-MDA-435 (ER−)
Experimental: as §1, with “Transient transfection of other breast cancer cell lines were carried out similarly, except that the transfection reagent used was Lipofectamine 2000 (Life technologies). All other cells were transfected using Geneporter 2 (Gene Therapy Systems). When indicated, the following compounds were included in the medium: all-trans retinoic acid (100 nM), etopside (100 μM), zVAD-fmk (100 μM), zVDVAD-fmk (20 μM), TNFα (10 ng/ml) and cycloheximide (10 μg/ml).” left out
as §2

[4] = test system: ER+ derivative of MB-MDA-231; assay: TUNEL apoptosis assay of transfected ER+ derivative of MB-MDA-231; assay type: cell-based, human
Experimental: as §1, with “Transient transfection of other breast cancer cell lines were carried out similarly, except that the transfection reagent used was Lipofectamine 2000 (Life technologies). All other cells were transfected using Geneporter 2 (Gene Therapy Systems). When indicated, the following compounds were included in the medium: all-trans retinoic acid (100 nM), etopside (100 μM), zVAD-fmk (100 μM), zVDVAD-fmk (20 μM), TNFα (10 ng/ml) and cycloheximide (10 μg/ml).” left out
as §2

HBL100 cells = assay: TUNEL apoptosis assay of transfected HBL100 cells; assay type: cell-based; settings: HBL100, non-malignant immortalized breast epithelial cell line
Experimental: as §1, with “Transient transfection of other breast cancer cell lines were carried out similarly, except that the transfection reagent used was Lipofectamine 2000 (Life technologies). All other cells were transfected using Geneporter 2 (Gene Therapy Systems). When indicated, the following compounds were included in the medium: all-trans retinoic acid (100 nM), etopside (100 μM), zVAD-fmk (100 μM), zVDVAD-fmk (20 μM), TNFα (10 ng/ml) and cycloheximide (10 μg/ml).” left out
as §2

HeLa cells [5] = assay: TUNEL apoptosis assay of transfected HeLa cells; assay type: cell-based
Experimental: as §1, with “Transient transfection of other breast cancer cell lines were carried out similarly, except that the transfection reagent used was Lipofectamine 2000 (Life technologies). All other cells were transfected using Geneporter 2 (Gene Therapy Systems). When indicated, the following compounds were included in the medium: all-trans retinoic acid (100 nM), etopside (100 μM), zVAD-fmk (100 μM), zVDVAD-fmk (20 μM), TNFα (10 ng/ml) and cycloheximide (10 μg/ml).” left out
as §2

COS-1 = assay: TUNEL apoptosis assay of transfected COS-1 cells; assay type: cell-based
Experimental: as §1, with “Transient transfection of other breast cancer cell lines were carried out similarly, except that the transfection reagent used was Lipofectamine 2000 (Life technologies). All other cells were transfected using Geneporter 2 (Gene Therapy Systems). When indicated, the following compounds were included in the medium: all-trans retinoic acid (100 nM), etopside (100 μM), zVAD-fmk (100 μM), zVDVAD-fmk (20 μM), TNFα (10 ng/ml) and cycloheximide (10 μg/ml).” left out
as §2

[6] = 100 uM inhibitor prior to and after transfection, T-47D

COC(=O)C[C@H](NC(=O)[C@H](C)NC(=O)[C@@H](NC(=O)OCc1ccccc1)C(C)C)C(=O)CF [zVAD-fmk] (Cbz-Val-Ala-Asp(OMe)-CH2F)
effect on apoptosis mediated by GFP-NRIF3 (T-47D cells [1]; [6]): did not inhibit apoptosis
effect on apoptosis mediated by GFPNLS-DD1 (T-47D cells [1]; [6]): did not inhibit apoptosis
cell death caused by inhibitor alone (T-47D cells [1]; T-47D, no transfected death construct, data not shown): did not cause cell death
effect on apoptosis of HeLa cells treated with TNFα and cycloheximide (HeLa cells [2]): significantly inhibit apoptosis

COC(=O)C[C@H](NC(=O)[C@H](C)NC(=O)[C@@H](NC(=O)[C@H](CC(=O)OC)NC(=O)[C@@H](NC(=O)OCc1ccccc1)C(C)C)C(C)C)C(=O)CF [zVDVAD-fmk] (Cbz-VD(OMe)VAD(OMe)-CH2F)
effect of caspase-2 chemical inhibitor on DD1-induced apoptosis (T-47D cells [1]; T-47D, 20 μM in medium, data not shown): efficiently blocked

Bcl-2: anti-apoptotic Bcl-2 family protein co-expressed from a vector
effect of co-expression on DD1-mediated apoptosis (T-47D cells [1]; co-expressed with GFPNLS-DD1 in T-47D): significantly inhibited

DD1: death domain 1, residues 20-50 of NRIF3 (SEQ ID NO:11), co-resides with transrepression domain RepD1 (PSKITRKKSVITYSPTTGTCQMSLFASPTSS; sequence of DD1)
induction of apoptosis (GH4C1): did not lead to apoptosis
induction of apoptosis 293: did not lead to apoptosis; also recorded: no detectable cell death
sub-cellular location of AIF-GFP upon co-expression (AIF-GFP): translocation of AIF-GFP from mitochondria to the nucleus
induction of apoptosis (MCF-7 cells): efficient apoptosis
induction of apoptosis (TUNEL and/or Annexin V) (T-47D cells [3]): efficient apoptosis; also recorded: underwent rapid apoptosis
induction of apoptosis (TUNEL and/or Annexin V) (T-47D cells [3]; listed as RepD1): efficiently induced death
induction of apoptosis (MB-MDA-231 cells): efficient apoptosis
induction of apoptosis (UOK-145): did not lead to apoptosis
induction of apoptosis (MB-MDA-435 cells): efficient apoptosis
induction of apoptosis [4]: efficient apoptosis
induction of apoptosis (HBL100 cells): efficient apoptosis
induction of apoptosis (HeLa cells [5]): did not lead to apoptosis; also recorded: no detectable cell death
induction of apoptosis (COS-1): did not lead to apoptosis
